Experimental data: PMC7395062, “Multiparametric assessment of mitochondrial respiratory inhibition in HepG2 and RPTEC/TERT1 cells using a panel of mitochondrial targeting agrochemicals” (Archives of Toxicology, 2020)
Read-outs that look alike come from different tables or passages of the source.

What was measured:
HepG2 cells [1] = assay: Resazurin reduction viability assay, 2D HepG2; type: cell-based, human; details: HepG2, galactose
Procedure: The HepG2 cell line, a human hepatocellular carcinoma, was obtained from ATCC (American Type Culture Collection, Wesel, Germany). […] Cells were maintained at 37 °C in a 5% CO2 humidified atmosphere, fed every 2 to 3 days and passaged at approximately 80% confluence. […] For galactose experiments, the medium was refreshed 24 h before exposure with galactose-containing medium. […] Culture medium was refreshed every 3–4 days and the culture was maintained for 21 days prior to dosing.
(§1) The conversion of resazurin to fluorescent resorufin was measured in a plate reader at excitation/emission 540/590 nm.
(§2) All results are average of 2–3 independent experiments.

HepG2 cells [2] = assay: Seahorse mitostress assay in intact cells (OCR/ECAR), HepG2; details: seen at 2 and 10 µM
RPTEC/TERT1 cells [3] = assay: Seahorse mitostress assay in intact cells (OCR/ECAR), RPTEC/TERT1; type: cell-based, human
Procedure: The Seahorse bioanalyzer simultaneously measures cellular oxygen consumption rates (OCR) and extracellular acidification rates (ECAR). The mitostress assay utilises a sequential addition of modulators of the oxidative phosphorylation to assess key parameters of mitochondrial function. […] It is worth noting here that RPTEC/TERT1 require longer differentiation time in the Seahorse plates, potentially due to sub-optimum gas exchange in the Seahorse culture plates. HepG2 cells were cultured at the density of 15,000 cells/well on collagen-coated (2.5 µg/µL collagen IV, Merck, C7521) Seahorse cell culture microplates two days prior to analysis.
The mitostress test was performed as described (Eakins et al. [2016]; Tilmant et al. [2018]). Immediately before the assay, cell culture medium was replaced with 180 µL of Seahorse XF Base Medium without phenol red (Agilent, 1003335-100), supplemented with 10 mM D-glucose (Merck, G7021), 5 mM HEPES (Merck, H4034), 2 mM sodium pyruvate (Merck, P5281) and 1 mM L-glutamine (Merck, G8540). Cells were allowed to equilibrate for 45 min in a non-CO2 37 °C incubator. […] OCR was measured five times after test compound injection and three times for all injections. Each measurement consisted of a 3 min mix and subsequent 3 min read cycle. […]

[4] = system: CII/CIII (succinate dehydrogenase / cytochrome bc1 complex); type: cell-based, human; details: permeabilised HepG2; sequential substrates/inhibitors
Procedure: The test compound is injected and OCR is measured. […] OCR is measured for the second time. […] A third and final OCR measurement is conducted.
Compounds were injected sequentially and OCR was measured twice. […] ETC inhibition is determined in decreased OCR.
as §2

RPTEC/TERT1 cells [5] = assay: Resazurin reduction viability assay, RPTEC/TERT1; type: cell-based, human
Procedure: These cells were obtained under licence from Evercyte GmBH, Vienna Austria. […] For experiments, cells were plated in a required format plate, allowed to become contact-inhibited and fed 24 h prior to treatment exposure. For experiments in galactose condition, cells were fed 24 h prior to experiment with culture medium (custom made DMEM/F12, PromoCell) in which 5 mM glucose was replaced with 5 mM galactose (Merck, G5388).
as §1, §2

HepG2 cells [6] = assay: Cell death (PI staining) in 2D HepG2 by live confocal imaging; type: cell-based, human
Procedure: After 1 h incubation at 37° C, the medium was removed and 25 μL complete DMEM containing 0.2 μM Rho123 and 100 nM propidium iodide (PI) (Merck, P4170) was added, followed by 25 μL of medium containing 2×, the desired concentration of test compound. […] The confocal imaging was performed using a Nikon TiE2000 with perfect focus system and xy-stage (Nikon, Amsterdam, The Netherlands). Quantification of the Hoechst, Rho123 and PI signal intensity and localization were performed using CellProfiler version 2.1.1 (Broad Institute, Cambridge, USA). […] The PI-positive nuclei were identified by masking the previous segmented nuclei and the PI signal. More than 10% overlap was considered as PI positive. All CellProfiler analyses were stored as HDF5 files. The combination of an internally developed R script, run in Rstudio (Boston, USA), was used for data extraction including Rho123 signal intensity, fraction PI positive and nuclear count.
as §2

RPTEC/TERT1 cells [7] = assay: Mitochondrial membrane potential (MMP) assay with JC-1; type: cell-based, human; details: RPTEC/TERT1, JC-1, 24 h
Procedure: JC-1 is a single-excitation dual-emission fluorescence-based assay that allows for ratiometric semiquantitative assessment of mitochondrial membrane potential (Perry et al. [2011]). For quantification of changes in MMP cells were pre-loaded, for approximately 1.5 h, with the JC-1 pre-loading solution containing 9 µM JC-1 (Invitrogen, 65-0851-38), 9 µL/mL Pluronic F-127 10% in water (Invitrogen, P6866) and 5 µM Cyclosporine A (CsA) (Merck, 30024), a P-glycoprotein (P-gp) inhibitor, to prevent dye extrusion due to the expression of efflux pumps in RPTEC/TERT1 cell line. After this incubation time, cells were washed and exposed to test compounds dissolved in a JC-1 treatment solution containing 0.5 µM JC-1, 1.5 µL/mL Pluronic F-127 and 1 µM CsA for the desired time. We have previously determined that CsA at up to 5 µM has no adverse effect on RPTEC/TERT1 cells for up to 14 days (Wilmes et al. [2013]). Fluorescence was measured in a plate reader at excitation 492 nm and dual emission, 535 nm for monomers and 590 nm for dimers. Results are presented as the dimer/monomer ratio and expressed as percentage of untreated samples.
(§3) All results are average of 2–3 independent experiments. […] Leist, University of Konstanz (Krebs et al. [2020]).

HepG2 cells [8] = assay: Mitochondrial membrane potential (Rho123) live confocal imaging; type: cell-based, human; details: HepG2, Rho123, 24 h
Procedure: Rhodamine 123 (Rho123) (Merck, R8004) was used in a live confocal imaging setting for the assessment of effects at MMP. Rho123 localises to mitochondria and the decline in fluorescence is proportional to a decrease in MMP (Johnson et al. [1980], [1981]). HepG2 were seeded at 10,000 cells/30 μL/well in a 384-wells μCLEAR® black plate (Greiner Bio-One, 781 091). Two days post-seeding, 30 μL complete HepG2 culture medium, containing 200 ng/μL Hoechst 33342 (Life technologies, H1399) and 1 μM Rho123, was added to the medium. After 1 h incubation at 37° C, the medium was removed and 25 μL complete DMEM containing 0.2 μM Rho123 and 100 nM propidium iodide (PI) (Merck, P4170) was added, followed by 25 μL of medium containing 2×, the desired concentration of test compound. The intensity of Hoechst, Rho123 and PI, was monitored using live confocal imaging for 24 h using the 408, 488 and 561 nm laser, respectively. The confocal imaging was performed using a Nikon TiE2000 with perfect focus system and xy-stage (Nikon, Amsterdam, The Netherlands). Quantification of the Hoechst, Rho123 and PI signal intensity and localization were performed using CellProfiler version 2.1.1 (Broad Institute, Cambridge, USA). The nuclear identification based on the Hoechst signal was performed using an internally created segmentation module (Di et al. [2012]), followed by a cytoplasmic identification based on a specific distance from these nuclei. The PI-positive nuclei were identified by masking the previous segmented nuclei and the PI signal. More than 10% overlap was considered as PI positive. All CellProfiler analyses were stored as HDF5 files. The combination of an internally developed R script, run in Rstudio (Boston, USA), was used for data extraction including Rho123 signal intensity, fraction PI positive and nuclear count.
as §3

Cc1ccc(-c2c(Cl)nc(C#N)n2S(=O)(=O)N(C)C)cc1 [Cyazofamid]
Statistical significance, Viability Galactose settings Resazurin (HepG2 cells [1]; h = 10 µM): * (*p < 0.05 (Tables 3, 4))
Uncoupling effect in mitostress OCR (HepG2 cells [2]): strong uncoupling effect
Uncoupling effect in mitostress OCR (RPTEC/TERT1 cells [3]; RPTEC/TERT1, seen at 2 and 10 µM): strong uncoupling effect
ETC-complex specificity pattern (CII/CIII) [4]: CII inhibition pattern but only at 100 µM

Cc1nn(C)c(Oc2ccccc2)c1C=NOCc1ccc(C(=O)OC(C)(C)C)cc1 [Fenpyroximate]
Statistical significance, Viability Glucose settings Resazurin (RPTEC/TERT1 cells [5]): * (*p < 0.05 (Tables 3, 4))
Statistical significance, Viability Galactose settings Resazurin (RPTEC/TERT1 cells [5]; RPTEC/TERT1, e = 0.08 µM): * (*p < 0.05 (Tables 3, 4))
Statistical significance, Viability Galactose settings Resazurin (RPTEC/TERT1 cells [5]; RPTEC/TERT1, g = 7 µM): * (*p < 0.05 (Tables 3, 4))
Statistical significance, Viability Galactose settings Resazurin (RPTEC/TERT1 cells [5]; RPTEC/TERT1, h = 10 µM): * (*p < 0.05 (Tables 3, 4))
Statistical significance, Viability Glucose settings Resazurin (RPTEC/TERT1 cells [5]; RPTEC/TERT1, glucose, g = 7 µM): * (*p < 0.05 (Tables 3, 4))
Statistical significance, Viability Glucose settings Resazurin (RPTEC/TERT1 cells [5]; RPTEC/TERT1, glucose, h = 10 µM): * (*p < 0.05 (Tables 3, 4))
Statistical significance, Viability Galactose settings Resazurin (HepG2 cells [1]; d = 0.016 µM): * (*p < 0.05 (Tables 3, 4))
Statistical significance, Viability Galactose settings Resazurin (HepG2 cells [1]; e = 0.08 µM): * (*p < 0.05 (Tables 3, 4))
Statistical significance, Viability Galactose settings Resazurin (HepG2 cells [1]; g = 7 µM): * (*p < 0.05 (Tables 3, 4))
Statistical significance, Viability Galactose settings Resazurin (HepG2 cells [1]; h = 10 µM): * (*p < 0.05 (Tables 3, 4))
Statistical significance, Cell death (% 24h) Galactose (HepG2 cells [6]): * (*p < 0.05 (Tables 3, 4))

CC(C)Oc1cccc(NC(=O)c2ccccc2C(F)(F)F)c1 [Flutolanil]
Effect on MMP (RPTEC/TERT1 cells [7]): actually increased it
Effect on MMP (HepG2 cells [8]): decreased MMP, but only at the highest concentrations

Cc1ccccc1C(=O)Nc1cccc(OC(C)C)c1 [Mepronil]
Effect on MMP (RPTEC/TERT1 cells [7]): actually increased it
Effect on MMP (HepG2 cells [8]): decreased MMP, but only at the highest concentrations

Cc1nc(C(F)(F)F)c(C(=O)Nc2c(Br)cc(OC(F)(F)F)cc2Br)s1 [Thifluzamide]
Statistical significance, Viability Galactose settings Resazurin (HepG2 cells [1]; h = 10 µM): * (*p < 0.05 (Tables 3, 4))
Effect on maximal respiration (RPTEC/TERT1 cells [3]; RPTEC/TERT1, higher concentrations): tendency to increase maximal respiration
Effect on MMP (HepG2 cells [8]): decreased MMP, but only at the highest concentrations
